From patent US8232278B2 (Gilead Sciences, Inc., priority 2005, dated 2012)
“And” between values parts separate entries of the source, which are not always exact repeats. Identical values can stand only once. Like-named read-outs stand apart in the source and are kept apart here.

Legend:
HCV replicon = experiment: Anti-HCV assay / replicon assay (EC50, luciferase read-out); format: cell-based, hepatitis C virus (HCV); details: for CC50/EC50: CC50/EC50 ratio (selectivity index)
Description: (§1) The anti-HCV activity of the pyrido[3,2-d]pyrimidine derivatives of this invention was tested in a human hepatoma Huh-7 cell line harbouring a HCV replicon. The assay comprised the following steps:
(§2) Step 1: Compound Preparation and Serial Dilution
(§3) • 1. for water soluble pyrido[3,2-d]pyrimidine derivatives, a volume of 500 μL of solution in cell media (DMEM, 10% FBS, P/S, L-Glutamine) was prepared with a concentration being twice the concentration of the starting final serial dilution concentration. […] The rest of the plate, columns 2-12, was filled with 100 μL of cell media. The plate was then placed on a Precision 2000 Workstation to start the serial dilution. Compounds were diluted three times each step from column 1 to column 10. Column 11 was used as a blank control (no compound added). • 2. for pyrido[3,2-d]pyrimidine derivatives requiring DMSO to dissolve, serial dilution is performed in 50% DMSO in a 384-well plate. A solution containing a compound at 100-fold concentration of the starting final serial dilution concentration was prepared in 50% DMSO and added to the pre-specified wells in column 1 of a polypropylene 384-well plate. The plate was then placed on a Precision 2000 Workstation to start the serial dilution. After the serial dilution, a volume of 2 μL of the solution was transferred from the 384-well plate to a 96-well cell culture plate containing 100 μL of cell media on a Biomek FX Workstation. The DMSO concentration in the final assay condition was 0.5% after cells are added to the plate and the total volume in each well is brought to 200 μL. Step 2: to each well of the serial dilution plate prepared above, 100 μL of cell media containing 6000 suspended Huh-7 HCV replicon cells was added with a Multidrop workstation. The plates were incubated for 3 days at 37° C. with 5% CO2. Step 3: Detection: • a) for the EC50 assay, the media in a 96-well cell culture plate was aspirated with a Biotek EL405 plate-washer. A volume of 200 μL of a solution containing a 1:1 mixture of cell-lysis buffer (Promega, Luciferase Cell Culture Lysis 5× Reagent, cat. #E1531) and luciferase substrate solution (Promega, Luciferase Assay, cat. #E4550) was added to each well of the plate with Multidrop.
(§4) Results in table 7 are expressed by the following data: • the 50% effective concentration (EC50), i.e. the concentration that protects 50% of the cell monolayer from virus-induced cythopathic effect, and • the 50% cytostatic concentration (CC50), i.e. the concentration that results in 50% inhibition of cell growth. Table 7 further indicates the nature of substituents being present in positions 2, 4 and 6 of the pyrido[3,2-d]pyrimidine derivatives of the invention.

[1] = CC50 assay in Huh-7 HCV replicon cells (CellTiter-Glo); format: cell-based, human; details: human, 50% cytostatic concentration
Description: as §1, §2, §3, §4

Huh-7 HCV replicon cells = experiment: as above; format: cell-based, human; details: 3 days, 50% cytostatic concentration
Description: as §1, §2, §3, §4

[2] = Hepatitis C virus, 72 h, human hepatoma Huh-7 cell line harbouring a HCV replicon, 3 days, luciferase luminescence, read-out: EC50
[3] = human hepatoma Huh-7 cell line harbouring a HCV replicon, 3 days, luciferase luminescence, read-out: EC50

SMILES	CC50/EC50 (HCV replicon)	EC50 (HCV replicon; [2])	CC50 at 3 days [1]	EC50 (HCV replicon; [3])	CC50 (Huh-7 HCV replicon cells)	EC50 (HCV replicon; Hepatitis C virus, Huh-7, 72 h)
COc1ccc(-c2ccc3nc(N)nc(Nc4cccc(Br)c4)c3n2)cc1OC [Example 34, 2-amino-4-(3-bromo-anilino)-6-(3,4-dimethoxyphenyl)pyrido[3,2-d]-pyrimidine]	151	0.051 µM	7.7 µM			
Nc1nc(N2CCN(C(=O)COc3ccc(Cl)cc3)CC2)c2nc(-c3ccc(F)cc3)ccc2n1 [Example 201, 2-amino-4-[(N-4-chloro-phenoxy-acetyl)-piperazin-1-yl]-6-(4-fluorophenyl)-pyrido[3,2-d]pyrimidine]	558			0.045 µM	25.1 µM	
CCCOc1nc(N)nc2ccc(-c3ccccc3F)nc12 [Example 282, 2-amino-4-n-propoxy-6-(o-fluorophenyl)-pyrido[3,2-d]pyrimidine]	89	0.56 µM			50.1 µM	
CCCCCOc1nc(N)nc2ccc(-c3ccccc3F)nc12 [Example 297, 2-amino-4-n-pentyloxy-6-(o-fluorophenyl)pyrido[3,2-d]-pyrimidine]	66	0.76 µM			50.1 µM	
CCOc1nc(N)nc2ccc(-c3ccc(OC)c(OC)c3)nc12 [Example 307, 2-amino-4-ethoxy-6-(3,4-dimethoxy)pyrido[3,2-d]pyrimidine]	264			0.19 µM	50.1 µM	
N#Cc1ccc(-c2ccc3nc(N)nc(N4CCN(C(=O)COc5ccc(Cl)cc5)CC4)c3n2)cc1 [Example 378, 2-amino-4-[N-(4-chlorophenoxyacetyl)piperazin-1-yl]-6-(4-cyanophenyl)pyrido-[3,2-d]pyrimidine]	571			0.008 µM	4.3 µM	
Nc1nc(N2CCN(C(=O)COc3ccc(Cl)cc3)CC2)c2nc(-c3ccc(C(F)(F)F)cc3)ccc2n1 [Example 379, 2-amino-4-[N-(4-chlorophenoxyacetyl)piperazin-1-yl]-6-(4-trifluoromethylphenyl)-pyrido-[3,2-d]pyrimidine]	287			0.075 µM	21.6 µM	
Nc1nc(N2CCN(C(=O)COc3ccc(Cl)cc3)CC2)c2nc(-c3ccoc3)ccc2n1 [Example 381, 2-amino-4-[N-(4-chlorophenoxyacetyl)piperazin-1-yl]-6-(furan-3-yl)pyrido-[3,2-d]pyrimidine]	149			0.061 µM	9.1 µM	
Nc1nc(N2CCN(C(=O)COc3ccc(Cl)cc3)CC2)c2nc(-c3ccsc3)ccc2n1 [Example 382, 2-amino-4-[N-(4-chlorophenoxyacetyl)piperazin-1-yl]-6-(thiophen-3-yl)pyrido-[3,2-d]pyrimidine]	1523			0.009 µM	13.1 µM	
Nc1nc(N2CCN(C(=O)COc3ccc(Cl)cc3)CC2)c2nc(-c3ccc(Cl)cc3)ccc2n1 [Example 384, 2-amino-4-[N-(4-chlorophenoxyacetyl)piperazin-1-yl]-6-(4-chlorophenyl)pyrido-[3,2-d]pyrimidine]	231 and 148			0.053 µM	12.2 µM and 7.9 µM	
Nc1nc(N2CCN(C(=O)COc3ccc(Cl)cc3)CC2)c2nc(-c3cccc(Cl)c3)ccc2n1 [Example 385, 2-amino-4-[N-(4-chlorophenoxyacetyl)piperazin-1-yl]-6-(3-chlorophenyl)pyrido-[3,2-d]pyrimidine]	122			0.061 µM	7.4 µM	
Nc1nc(N2CCN(C(=O)COc3ccc(Cl)cc3)CC2)c2nc(-c3ccncc3)ccc2n1 [Example 386, 2-amino-4-[N-(4-chlorophenoxyacetyl)piperazin-1-yl]-6-(pyridin-4-yl)pyrido-[3,2-d]pyrimidine]	4585			0.001 µM	6 µM	
Nc1nc(N2CCN(C(=O)COc3ccc(Cl)cc3)CC2)c2nc(-c3ccc(F)c(Cl)c3)ccc2n1 [Example 387, 2-amino-4-[N-(4-chlorophenoxyacetyl)piperazin-1-yl]-6-(3-chloro-4-fluorophenyl)-pyrido-[3,2-d]pyrimidine]	280			0.021 µM	5.9 µM	
Cc1cccc(NC(=O)N2CCN(c3nc(N)nc4ccc(-c5ccccc5)nc34)CC2)c1 [Example 389, 2-amino-4-[N-(3-methyl-phenyl-carbamoyl)-piperazin-1-yl]-6-phenyl-pyrido[3,2-d]pyrimidine]	200			0.021 µM	4.2 µM	
Cc1cccc(NC(=O)N2CCN(c3nc(N)nc4ccc(-c5ccc(F)cc5)nc34)CC2)c1 [Example 390, 2-amino-4-[N-(3-methylphenyl-carbamoyl)-piperazin-1-yl]-6-(4-fluorophenyl)-pyrido[3,2-d]pyrimidine]	575			0.006 µM	3.5 µM	
CSc1nc(N)nc2ccc(-c3ccc(F)cc3)nc12 [Example 392, 2-amino-4-thiomethyl-6-(4-fluorophenyl)-pyrido(3,2-d)pyrimidine]	512			0.049 µM	25.1 µM	
CCSc1nc(N)nc2ccc(-c3ccc(F)cc3)nc12 [Example 393, 2-amino-4-thioethyl-6-(4-fluorophenyl)pyrido(3,2-d)pyrimidine]	154			0.234 µM	36 µM	
CC(C)Sc1nc(N)nc2ccc(-c3ccc(F)cc3)nc12 [Example 394, 2-amino-4-thioisopropyl-6-(4-fluorophenyl)pyrido(3,2-d)pyrimidine]	268			0.187 µM	50.1 µM	
Nc1nc(N2CCS(=O)(=O)CC2)c2nc(-c3ccc(F)cc3)ccc2n1 [Example 406, 2-amino-4-(thiomorpholino-1,1-dioxide)-6-(4-fluorophenyl)pyrido[3,2-d]pyrimidine]	1931			0.013 µM	25.1 µM	
CS(=O)(=O)CCNc1nc(N)nc2ccc(-c3ccc(F)cc3)nc12 [Example 415, 2-amino-4-[(2-aminoethyl)methylsulfone]-6-(4-fluorophenyl)pyrido[3,2-d]pyrimidine]	118			0.099 µM	11.7 µM	
CCOc1nc(N)nc2ccc(-c3ccc(F)c(Cl)c3)nc12 [Example 462, 6-(3-chloro-4-fluoro-phenyl)-4-ethoxy-pyrido[3,2-d]pyrimidin-2-ylamine]	117				50.1 µM	0.428 µM
CCOc1nc(N)nc2ccc(-c3ccc(Cl)cc3)nc12 [Example 463, 6-(4-chloro-phenyl)-4-ethoxy-pyrido[3,2-d]pyrimidin-2-ylamine]	98				50.1 µM	0.511 µM
CCOc1nc(N)nc2ccc(-c3ccc(N)cc3)nc12 [Example 465, 6-(4-amino-phenyl)-4-ethoxy-pyrido[3,2-d]pyrimidin-2-ylamine]	145				50.1 µM	0.346 µM
CCOc1nc(N)nc2ccc(-c3cccs3)nc12 [Example 467, 4-Ethoxy-6-thiophen-2-yl-pyrido[3,2-d]pyrimidin-2-ylamine]	113	0.443 µM			50.1 µM	
CCOc1nc(NC(C)=O)nc2ccc(-c3ccc(F)cc3)nc12 [NHCOMe/OEt/(4-F)Ph]	170			0.148 µM	25.1 µM	
